pIC50: −log10 of the molar value.

The values that follow come from patent US20110256605A1, “CELLS WITH NON-NATURAL PHYSIOLOGIES DERIVED BY EXPRESSING LIGHT-POWERED PROTON PUMPS IN ONE OR MORE MEMBRANES” (The Regents of the University of California, a California …, priority 2010, published 2011).

The test deals with E. coli flagellar motor / cellular pmf. It counts as cell-based.

Experimental: Cell culture. We expressed the SAR86 γ-proteobacterial PR-variant (Geneart, Inc) in E. coli cells (RP437 DE3 ΔcheY Cm^R) using a T7 based expression system (pET200, Kan^R, Invitrogen). Cells were grown in T broth (1% Tryptone, 0.5% NaCl) supplemented with kanamycin (25 μg/ml). In mid-log phase, PR expression was induced with 1 mM IPTG and the medium was supplemented with 10 μM ethanolic all-trans-retinal. Cells were collected in late log phase by gentle centrifugation (4500×g, 5 min) and carefully resuspended in motility medium (1 mM PBS (Ambion), 0.1 mM EDTA, pH 7.4). PR^+ denotes cells expressing proteorhodopsin, and PR^− denotes cells (RP437 DE3 ΔcheY Cm^R) without the PR plasmid. […] Unless otherwise noted, all experiments were done in glucose free motility medium and at room temperature.
Instrumentation. […]
To increase the accuracy of the flagellar rotation measurements, a tethered cell geometry was employed (FIG. 2A) which permitted the extended observation of the same bacterium in different illumination conditions. PR^+ cells were allowed to stick to the coverslip via a flagellum, and the angular rotation rate of cells was monitored (FIG. 2A). […]

With `[N-]=[N+]=[N-]` [azide, sodium azide], for the setting “without green light, azide 0 to 110 mM, read-out: Azide concentration at which pmf dropped to 50% of its original value”, the pIC50 is 1.26.
Take `N#CC(C#N)=NNc1cccc(Cl)c1` [CCCP, carbonyl cyanide 3-chlorophenylhydrazone]: the “Effect on bacterial motility” value (100 μM, low oxygen cultures, not restored with 50 seconds of green illumination) was “eliminated all bacterial motility”.
